Measured values: patent US10138233B2, “Imidazole compounds as modulators of FSHR and uses thereof” (Merck Patent GmbH, priority 2013, dated 2018)
pEC50: −log10 of the molar value.

molecular target: T1, FSHR (Homo sapiens, UniProt P23945); assay: EC50 of cyclic AMP production in CHO FSHR cells + EC20 FSH (Assay A); type: cell-based; conditions: CHO-FSHR-LUC cells, in presence of EC20 FSH, cAMP HTRF, 1 h 37° C.
T1 construct: expressed in transfected cells; host or cells: CHO cells, clone Cho-FSHR-LUC-1-1-43
T1 sequence (P23945 18-695): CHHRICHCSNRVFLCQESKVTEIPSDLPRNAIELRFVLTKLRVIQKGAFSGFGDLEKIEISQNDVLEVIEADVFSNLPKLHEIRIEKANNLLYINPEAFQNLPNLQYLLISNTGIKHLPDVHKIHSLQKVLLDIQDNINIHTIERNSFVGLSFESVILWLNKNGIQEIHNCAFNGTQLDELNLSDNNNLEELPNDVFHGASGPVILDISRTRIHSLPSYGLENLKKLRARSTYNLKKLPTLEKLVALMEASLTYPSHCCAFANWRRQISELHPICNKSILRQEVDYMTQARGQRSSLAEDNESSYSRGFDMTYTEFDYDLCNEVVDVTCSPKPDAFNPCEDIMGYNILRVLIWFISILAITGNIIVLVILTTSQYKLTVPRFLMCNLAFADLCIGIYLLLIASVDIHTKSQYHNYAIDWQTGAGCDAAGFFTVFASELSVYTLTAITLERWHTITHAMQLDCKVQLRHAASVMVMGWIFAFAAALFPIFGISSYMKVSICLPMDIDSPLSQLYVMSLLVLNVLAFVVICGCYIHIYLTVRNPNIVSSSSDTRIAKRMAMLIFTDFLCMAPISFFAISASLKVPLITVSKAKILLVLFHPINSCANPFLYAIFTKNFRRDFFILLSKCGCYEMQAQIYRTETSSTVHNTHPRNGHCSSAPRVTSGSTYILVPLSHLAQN
Procedure: EC50 of cyclic AMP production in CHO FSHR cells+EC20 FSH (Assay A)
2500 Cho-FSHR-LUC-1-1-43 cells were plated per well in 5 μl of phenol red free DMEM/F12+1% FBS. […] Cells were assayed by adding 100 μl of 2×EC20 FSH/IBMX in DMEM/F12+0.1% BSA) by Multidrop to 2 μl of test compound stamped in 384 well plates (compounds are diluted 1:50). […] The compound plate map was as follows: Column 1: 2 μl of DMSO; Column 2: 2 μl of DMSO; Columns 3-12 and 13-24: 2 μl of test compound, diluted 1:4 in 100% DMSO, or 2 μl of FSH, diluted 1:4 in DMEM/F12+0.1% BSA. The starting concentration for FSH was 50 nM (final concentration was 0.5 nM). […] 10 μl of mixed HTRF (CisBio #62AM4PEC) reagents were added per well and incubated at room temperature for 1 h. The plates were read on Envision using the cAMP HTRF—low volume 384 well protocol. […] Values given in percent (%) indicate the percental effect (response) at a certain concentration of agonist relative to the maximum response of the FSH standard.

| SMILES | pEC50 |
| --- | --- |
| COc1cc2c(cc1OC(C)C)-n1c(-c3cn(C)nn3)nc(C(=O)N3CCOCC3(C)C)c1CC2 [Compound 52] | < 5.30 |
| COc1cc2c(cc1OC(C)C)-n1c(-c3cn[nH]c3)nc(C(=O)N3CCOCC3(C)C)c1CC2 [Compound 61] | < 5.30 |
| COc1cc2c(cc1OC(C)C)-n1c(-c3cc[nH]n3)nc(C(=O)N3CCOCC3(C)C)c1CC2 [Compound 69] | < 5.30 |
| COc1cc2c(cc1-c1ccn(C)n1)-n1c(-c3ccn(C)c3)nc(C(=O)N3CCOCC3(C)C)c1CC2 [Compound 73, (3,3-Dimethyl-morpholin-4-yl)-[7-methoxy-8-(1-methyl-1H-pyrazol-3-yl)-1-(1-methyl-1H-pyrrol-3-yl)-4,5-dihydro-imidazo[1,5-a]quinolin-3-yl]-methanone] | < 5.30 |
| COC(=O)c1nc(C(=O)N(C)C(C)(C)C)c2n1-c1cc(OC(C)C)c(OC)cc1CC2 [Compound 74, 3-(tert-Butyl-methyl-carbamoyl)-8-isopropoxy-7-methoxy-4,5-dihydro-imidazo[1,5-a]quinoline-1-carboxylic acid methyl ester] | 5.30 to 6.00 |
| COc1cc2c(cc1OC(C)C)-n1c(-c3cnn(C4CCC4)c3)nc(C(=O)N3CCOCC3(C)C)c1CC2 [Compound 80] | < 5.30 |
| COc1cc2c(cc1OC(C)C)-n1c(-c3cccc4[nH]ncc34)nc(C(=O)N3CCOCC3(C)C)c1CC2 [Compound 81] | 5.30 to 6.00 |
| COCCCc1nc(C(=O)N2CCOCC2(C)C)c2n1-c1cc(OC(C)C)c(OC)cc1CC2 [Compound 82, (3,3-Dimethyl-morpholin-4-yl)-[8-isopropoxy-7-methoxy-1-(3-methoxy-propyl)-4,5-dihydro-imidazo[1,5-a]quinolin-3-yl]-methanone] | < 5.30 |
| COc1cc2c(cc1OC(C)C)-n1c(C3CCOCC3)nc(C(=O)N3CCOCC3(C)C)c1CC2 [Compound 84, (3,3-Dimethyl-morpholin-4-yl)-[8-isopropoxy-7-methoxy-1-(tetrahydro-pyran-4-yl)-4,5-dihydro-imidazo[1,5-a]quinolin-3-yl]-methanone] | < 5.30 |
| COc1cc2c(cc1OC(C)C)-n1c(C3CCCCO3)nc(C(=O)N3CCOCC3(C)C)c1CC2 (stereo not shown) [Compound 85, (3,3-Dimethyl-morpholin-4-yl)-[8-isopropoxy-7-methoxy-1-(tetrahydro-pyran-2-yl)-4,5-dihydro-imidazo[1,5-a]quinolin-3-yl]-methanone] | < 5.30 |
| COc1cc2c(cc1OC(C)C)-n1c(C3=CCC(C)CC3)nc(C(=O)N3CCOCC3(C)C)c1CC2 (stereo not shown) [Compound 86] | 5.30 to 6.00 |
| COc1cc2c(cc1OC(C)C)-n1c(-c3ccnn3CC(C)C)nc(C(=O)N3CCOCC3(C)C)c1CC2 [Compound 87] | 5.30 to 6.00 |
| COc1cc2c(cc1OC(C)C)-n1c(-c3cccc4cn[nH]c34)nc(C(=O)N3CCOCC3(C)C)c1CC2 [Compound 89] | 5.30 to 6.00 |
| [2H]C([2H])([2H])NC(=O)c1cc2c(cc1OC)CCc1c(C(=O)N(C)C(C)(C)C)nc(-c3cccs3)n1-2 [Compound 90, 7-Methoxy-1-thiophen-2-yl-4,5-dihydro-imidazo[1,5-a]quinoline-3,8-dicarboxylic acid 3-(tert-butyl-methyl-amide) 8-methyl-d3-amide] | 5.30 to 6.00 |
| CCCn1nc(C)cc1-c1nc(C(=O)N2CCOCC2(C)C)c2n1-c1cc(OC(C)C)c(OC)cc1CC2 [Compound 91] | 5.30 to 6.00 |
| COc1cc2c(cc1OC(C)C)-n1c(C3=CCCN(C)C3)nc(C(=O)N3CCOCC3(C)C)c1CC2 [Compound 93] | < 5.30 |
| COc1cc2c(cc1CC(C)C)-n1c(C3CCOC3)nc(C(=O)N(C)C(C)(C)C)c1CC2 (stereo not shown) [Compound 94, N-(tert-butyl)-8-isobutyl-7-methoxy-N-methyl-1-(tetrahydrofuran-3-yl)-4,5-dihydroimidazo[1,5-a]quinoline-3-carboxamide] | 5.30 to 6.00 |

Continued, values first:

| pEC50 | SMILES |
| --- | --- |
| 5.30 to 6.00 | COc1cc2c(cc1OC(C)C)-n1c(-c3[nH]ncc3C)nc(C(=O)N3CCOCC3(C)C)c1CC2 [Compound 54] |
| 6.00 to 7.00 | COc1cc2c(cc1CC(C)C)-n1c(-c3cccs3)nc(C(=O)NC3(C)COC3)c1CC2 [Compound 55, 8-Isobutyl-7-methoxy-1-thiophen-2-yl-4,5-dihydro-imidazo[1,5-a]quinoline-3-carboxylic acid (3-methyl-oxetan-3-yl)-amide] |
| > 7.00 | COc1cc2c(cc1CC(C)C)-n1c(-c3cccs3)nc(C(=O)N3CCOCC34COC4)c1CC2 [Compound 56, (2,8-Dioxa-5-aza-spiro[3.5]non-5-yl)-(8-isobutyl-7-methoxy-1-thiophen-2-yl-4,5-dihydro-imidazo[1,5-a]quinolin-3-yl)-methanone] |
| 5.30 to 6.00 | COc1cc2c(cc1CC(C)C)-n1c(-c3cccs3)nc(C(=O)N3CCCC34COC4)c1CC2 [Compound 57, (8-Isobutyl-7-methoxy-1-thiophen-2-yl-4,5-dihydro-imidazo[1,5-a]quinolin-3-yl)-(2-oxa-5-aza-spiro[3.4]oct-5-yl)-methanone] |
| > 7.00 | [2H]C([2H])([2H])N(C(=O)c1nc(-c2cccs2)n2c1CCc1cc(OC)c(CC(C)C)cc1-2)C1(C)COC1 [Compound 58, 8-Isobutyl-7-methoxy-1-thiophen-2-yl-4,5-dihydro-imidazo[1,5-a]quinoline-3-carboxylic acid methyl-d3-(3-methyl-oxetan-3-yl)-amide] |
| 6.00 to 7.00 | COc1cc2c(cc1OC(C)C)-n1c(-c3sccc3C)nc(C(=O)N3CCOCC3(C)C)c1CC2 [Compound 60] |
| 5.30 to 6.00 | COc1cc2c(cc1OC(C)C)-n1c(-c3ccccc3OC)nc(C(=O)N(C)C(C)(C)C)c1CC2 [Compound 62] |
| 6.00 to 7.00 | COc1cc2c(cc1OC(C)C)-n1c(-c3ccc(C)cc3)nc(C(=O)N(C)C(C)(C)C)c1CC2 [Compound 63] |
| 5.30 to 6.00 | COc1cc2c(cc1OC(C)C)-n1c(-c3ccc(C#N)cc3)nc(C(=O)N(C)C(C)(C)C)c1CC2 [Compound 64] |
| 6.00 to 7.00 | COc1cc2c(cc1OC(C)C)-n1c(-c3cc(Cl)ccc3Cl)nc(C(=O)N(C)C(C)(C)C)c1CC2 [Compound 65] |
| 6.00 to 7.00 | COc1cc2c(cc1OC(C)C)-n1c(-c3cccc(F)c3)nc(C(=O)N(C)C(C)(C)C)c1CC2 [Compound 66] |
| 6.00 to 7.00 | COc1cc2c(cc1OC(C)C)-n1c(-c3ccccc3Cl)nc(C(=O)N(C)C(C)(C)C)c1CC2 [Compound 67] |
| 6.00 to 7.00 | COc1cc2c(cc1OC(C)C)-n1c(-c3cccc(C(F)(F)F)c3)nc(C(=O)N(C)C(C)(C)C)c1CC2 [Compound 68] |
| 6.00 to 7.00 | COc1cc2c(cc1-c1ccn(C)n1)-n1c(-c3ccsc3)nc(C(=O)N(C)C(C)(C)C)c1CC2 [Compound 77, 7-Methoxy-8-(1-methyl-1H-pyrazol-3-yl)-1-thiophen-3-yl-4,5-dihydro-imidazo[1,5-a]quinoline-3-carboxylic acid tert-butyl-methyl-amide] |
| 6.00 to 7.00 | COc1cc2c(cc1NC(=O)C(C)C)-n1c(-c3cccs3)nc(C(=O)N3CCOCC3(C)C)c1CC2 [Compound 78, N-[3-(3,3-Dimethyl-morpholine-4-carbonyl)-7-methoxy-1-thiophen-2-yl-4,5-dihydro-imidazo[1,5-a]quinolin-8-yl]-isobutyramide] |
| 6.00 to 7.00 | COc1cc2c(cc1OC(C)C)-n1c(C3=CCOCC3)nc(C(=O)N3CCOCC3(C)C)c1CC2 [Compound 79] |
| 6.00 to 7.00 | COc1cc2c(cc1OC(C)C)-n1c(C3CCCC3)nc(C(=O)N3CCOCC3(C)C)c1CC2 [Compound 83, (1-Cyclopentyl-8-isopropoxy-7-methoxy-4,5-dihydro-imidazo[1,5-a]quinolin-3-yl)-(3,3-dimethyl-morpholin-4-yl)-methanone] |
| 6.00 to 7.00 | CCCn1nccc1-c1nc(C(=O)N2CCOCC2(C)C)c2n1-c1cc(OC(C)C)c(OC)cc1CC2 [Compound 88] |
| 6.00 to 7.00 | CCn1nccc1-c1nc(C(=O)N2CCOCC2(C)C)c2n1-c1cc(OC(C)C)c(OC)cc1CC2 [Compound 92] |
| 6.00 to 7.00 | COc1cc2c(cc1CC(C)C)-n1c(-c3cc(C)cs3)nc(C(=O)N(C)C(C)(C)C)c1CC2 [Compound 95, 8-Isobutyl-7-methoxy-1-(4-methyl-thiophen-2-yl)-4,5-dihydro-imidazo[1,5-a]quinoline-3-carboxylic acid tert-butyl-methyl-amide] |
